SMILES strings stand for the structures. “And” between values parts separate entries of the source, which are not always exact repeats. Identical values can stand only once.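 96-well plates; 48 h exposure; 5 concentrations. Endpoints by linear interpolation between flanking doses. Not reached: highest tested concentration assigned. Here, GI50 denotes the concentration required for 50% inhibition of growth. TGI denotes the concentration required for complete inhibition of growth.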

Some test systems named below: NCI-H23 lung; SW-620 colon; SR leukemia; SN12C renal; SNB-19 CNS; NCI-H460 lung; SK-OV-3 ovarian; NCI-H522 lung; SF-295 CNS; MDA-MB-231 breast.
Test in all cases: DTP human tumour cell line panel, 48 h

Regarding `COc1cc2c(c(OC)c1OC)-c1ccc(SC)c(=O)cc1[C@@H](NC(=O)c1ccc(OC(C)=O)cc1)CC2`, the total growth inhibition concentration (TGI) (usually the concentration at which net growth stops) in the experiment on NCI-H23 lung is 0.049 µM; with SW-620 colon, 31 µM; with SR leukemia, 23.9 µM; with SN12C renal, 18.8 µM; in the experiment with NCI-H460 lung, 0.0206 µM; with SK-OV-3 ovarian, 0.0683 µM and 0.0201 µM. The GI50 – broadly, the concentration at which growth is held to half of that of the control – in the experiment on SR leukemia is 0.00773 µM; with SNB-19 CNS, 0.0214 µM.

As to `S=c1[nH]c(=S)c2sc(=S)n(-c3ccccc3)c2[nH]1`, the TGI in the experiment with NCI-H23 lung, in the experiment with SW-620 colon, in the experiment with SR leukemia, with SN12C renal, in the experiment with NCI-H522 lung and in the experiment on SF-295 CNS was over 100 µM each time. Besides, the TGI in the experiment with SNB-19 CNS, with NCI-H460 lung and with SK-OV-3 ovarian was over 100 µM throughout.

As to `COc1ccc2c([nH]c3cc(O)c(C)cc32)c1C=O`, the TGI in the experiment on SW-620 colon, in the experiment on SR leukemia, with SN12C renal, in the experiment on NCI-H522 lung, in the experiment on SNB-19 CNS and in the experiment on NCI-H460 lung was over 25 µM each time. Moreover, the total growth inhibition concentration (TGI) in the experiment with SK-OV-3 ovarian was over 25 µM.

For `COC(=O)/C=C(C)/C=C/c1cc(C(C)=O)c(C)o1`, the TGI in the experiment on NCI-H23 lung, in the experiment on SW-620 colon, with SR leukemia, in the experiment with NCI-H522 lung, in the experiment on SF-295 CNS and with SNB-19 CNS was over 100 µM each time. The concentration for total growth inhibition (TGI) in the experiment with NCI-H460 lung and with SK-OV-3 ovarian was over 100 µM throughout.

On to `CN1c2ccccc2C(=O)NC12CCN(Cc1ccccc1)CC2`, for which the TGI with NCI-H23 lung, in the experiment on SW-620 colon, with SR leukemia, in the experiment with SN12C renal, in the experiment with MDA-MB-231 breast and in the experiment with SF-295 CNS was over 100 µM in each case. Moreover, the concentration for total growth inhibition (TGI) in the experiment on SNB-19 CNS, with NCI-H460 lung and in the experiment with SK-OV-3 ovarian was over 100 µM each time.

Take `CCCCCCCCCCC(C)CCCCCCC(=O)OCC(COP(=O)([O-])OCC[N+](C)(C)C)OC(=O)CCCCCCC(C)CCCCCCCCCC` (stereo unspecified): the total growth inhibition concentration (TGI) in the experiment on NCI-H23 lung, in the experiment with SW-620 colon, in the experiment on SR leukemia, in the experiment with SN12C renal, in the experiment on NCI-H522 lung and in the experiment with SF-295 CNS was over 100 µM each time. Moreover, the total growth inhibition concentration (TGI) in the experiment with SNB-19 CNS, in the experiment with NCI-H460 lung and with SK-OV-3 ovarian was over 100 µM in each case.

As to `CCOC(=O)/C(=C\c1ccc(OCc2ccccc2)c(OC)c1)C(=O)c1ccccc1`, the TGI in the experiment on NCI-H23 lung is 35.2 µM; in the experiment on SW-620 colon it was 40 µM; in the experiment with SR leukemia it was over 100 µM; with SN12C renal, 45.6 µM; with NCI-H522 lung, 32.6 µM; in the experiment on SF-295 CNS, 46.8 µM. Besides, the TGI is 66.4 µM in the experiment with SNB-19 CNS and over 100 µM with SK-OV-3 ovarian.

Regarding `Cc1nc2c(=O)[nH]c(=O)n(C)c2[nH]c1=O`, the TGI in the experiment on NCI-H23 lung, with SW-620 colon, with SR leukemia, in the experiment with SN12C renal, in the experiment with NCI-H522 lung and in the experiment on SNB-19 CNS was over 100 µM throughout. The total growth inhibition concentration (TGI) with NCI-H460 lung and in the experiment on SK-OV-3 ovarian was over 100 µM in each case.

For the compound `O=C(c1cc(F)c(Cl)cc1Cl)N1N=C(c2ccccc2)CC1(O)c1ccccc1` (stereo unspecified), the GI50 was 20.2 µM with NCI-H23 lung; 18.9 µM with SW-620 colon; 18.7 µM with SN12C renal; 14.5 µM with NCI-H522 lung; 15.7 µM in the experiment with MDA-MB-231 breast; 32.9 µM in the experiment with SF-295 CNS. In addition, the GI50 in the experiment with SNB-19 CNS is 29.2 µM; with NCI-H460 lung it was 19.1 µM; in the experiment with SK-OV-3 ovarian, 28.4 µM. The total growth inhibition concentration (TGI) with NCI-H23 lung is 48.2 µM; in the experiment with SW-620 colon, 36.9 µM; in the experiment with SN12C renal it was 40.5 µM; in the experiment on NCI-H522 lung it was 36.9 µM; in the experiment with MDA-MB-231 breast, 33.3 µM; in the experiment on SF-295 CNS, over 100 µM. The TGI in the experiment on SNB-19 CNS came to 93.7 µM; with NCI-H460 lung, 36.7 µM; in the experiment on SK-OV-3 ovarian it was 80.1 µM.

For the compound `CCOC(=O)Cc1csc(/N=C2\NC(=O)/C(=C3\C(=O)N(C)c4ccccc43)S2)n1`, the GI50 with NCI-H23 lung is 48 µM; in the experiment on SW-620 colon it was 52.1 µM; in the experiment with SN12C renal, 31 µM; with NCI-H522 lung, 24.8 µM; with MDA-MB-231 breast, 37.4 µM; in the experiment on SF-295 CNS, 29.8 µM. The GI50 is 52.5 µM with SNB-19 CNS, 20.7 µM with NCI-H460 lung and over 100 µM in the experiment with SK-OV-3 ovarian. The TGI in the experiment with NCI-H23 lung was over 100 µM; in the experiment on SW-620 colon, over 100 µM; with SN12C renal, over 100 µM; in the experiment on NCI-H522 lung it was 93.3 µM; in the experiment on MDA-MB-231 breast it was over 100 µM; in the experiment on SF-295 CNS, 87 µM. Further, the TGI in the experiment with SNB-19 CNS is over 100 µM; with NCI-H460 lung it was 55.9 µM; in the experiment on SK-OV-3 ovarian it was over 100 µM.

`c1nc2cscc2c2cscc12`: the TGI with NCI-H23 lung, with SW-620 colon, in the experiment with SR leukemia, with SN12C renal, with NCI-H522 lung and in the experiment with SF-295 CNS was over 100 µM each time. Moreover, the TGI in the experiment on SNB-19 CNS, with NCI-H460 lung and with SK-OV-3 ovarian was over 100 µM throughout.

`[N-]=[N+]=NC1=NNC2(C(=O)N1)c1ccccc1-c1ccccc12`: the TGI in the experiment on NCI-H23 lung, in the experiment on SW-620 colon, in the experiment on SN12C renal, with NCI-H522 lung, in the experiment on MDA-MB-231 breast and in the experiment with SF-295 CNS was over 100 µM throughout. Also, the total growth inhibition concentration (TGI) in the experiment with SNB-19 CNS, with NCI-H460 lung and with SK-OV-3 ovarian was over 100 µM throughout.

Regarding `C=CC[C@H]1C[C@@]2(C)OC[C@H](C(C)C)N2C1=O`, the TGI in the experiment on NCI-H23 lung, with SW-620 colon, in the experiment on SR leukemia, in the experiment with SN12C renal, in the experiment with SF-295 CNS and with SNB-19 CNS was over 100 µM each time. Besides, in the experiment with NCI-H460 lung, the TGI was over 100 µM.

Regarding `Cc1cc(O)c(C(=O)CC2(O)C(=O)Nc3c(Cl)cc(Cl)cc32)c(=O)o1` (stereo unspecified), the total growth inhibition concentration (TGI) in the experiment on NCI-H23 lung, with SW-620 colon, in the experiment with SR leukemia, in the experiment on SN12C renal, in the experiment on NCI-H522 lung and in the experiment with SF-295 CNS was over 100 µM in each case. In addition, the TGI in the experiment on SNB-19 CNS, in the experiment with NCI-H460 lung and in the experiment on SK-OV-3 ovarian was over 100 µM in each case.

The values above are taken from PubChem BioAssay (NCI).
